The test system of one assay is Male NMRI mice. In words: Test 2: increase of motility of mice after intravenous administration (photocell crossings). It counts as in vivo. Particulars: ED50, i.v., lowest ED50 value determined at a 20 min interval during the 360 min test period. As for the experimental part:
The compounds were also tested for their ability to increase the motility of mice following intravenous administration using the method outlined below.
Male NMRI mice are used (20 ± 2 g). The animals are housed 20-30 per cage under constant temperature (20 ± 1°C) and relative humidity (40-60%). The animals are brought into the experimental room in the afternoon, the day before they undergo testing.
The experimentally-naive, uninjected mice are acclimatized by being placed in a plexiglass box (WLH: 20 x 20 x 38 cm), four per box, for a 120 min period, and then injected with the test compound whereafter they are replaced in the plexiglass box.
The plexiglass box is equipped with a frame of photocells (spaced equidistantly) which are situated so as to detect locomotor behaviour of the animals (1 cm above the floor). The photocell chamber is housed in an sound-insulated, dimly-lit, ventilated chest. As a measure of exploratory behaviour, the number of photocell crossings in a 360 min period is detected using a minicomputer. Testing is made between 7:00 and 17.00 h.
Drugs are injected i.v. simultaneously with start of testing; N = 4/dose; 4-5 doses of test drug is given in a volume of 10 ml/kg. […]

Another assay deals with T1, DA-uptake complex (Rattus norvegicus, UniProt P23977).
T1 construct: in a striatal membrane preparation; from tissue; host or cells: striatum (membrane preparation)
In words: Test 1: inhibition of 3H-GBR 12935 binding in a striatal membrane preparation.

T1 sequence (P23977 whole entry, one chain of several): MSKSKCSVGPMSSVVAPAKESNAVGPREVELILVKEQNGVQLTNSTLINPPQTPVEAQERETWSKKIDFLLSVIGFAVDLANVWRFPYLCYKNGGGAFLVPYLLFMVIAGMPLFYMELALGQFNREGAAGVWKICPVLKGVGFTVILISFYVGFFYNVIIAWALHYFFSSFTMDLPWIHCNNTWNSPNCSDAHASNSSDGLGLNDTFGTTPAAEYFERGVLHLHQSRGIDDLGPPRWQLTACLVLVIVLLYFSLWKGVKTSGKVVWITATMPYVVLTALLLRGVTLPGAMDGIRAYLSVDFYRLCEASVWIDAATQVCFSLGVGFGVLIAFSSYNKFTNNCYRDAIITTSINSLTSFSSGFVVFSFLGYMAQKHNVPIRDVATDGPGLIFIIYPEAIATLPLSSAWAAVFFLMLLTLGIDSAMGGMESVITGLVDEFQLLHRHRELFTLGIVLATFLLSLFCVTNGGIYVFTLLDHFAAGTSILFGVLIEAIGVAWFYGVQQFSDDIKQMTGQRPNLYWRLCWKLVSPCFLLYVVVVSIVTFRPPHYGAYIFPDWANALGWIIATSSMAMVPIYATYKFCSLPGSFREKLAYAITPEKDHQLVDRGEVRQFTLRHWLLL

For orientation: IC50 means the concentration at which inhibition is half-maximal. The low end stands for greater potency, the high end for weaker potency. Take `N#CCCCCN1CCN(CCOC(c2ccc(F)cc2)c2ccc(F)cc2)CC1` [Example 4A, 1-[2-(bis-(4-fluorophenyl)-methoxy)-ethyl]-4-(4-cyanobutyl)-piperazine]: the “Test 2” value in the assay with Male NMRI mice stood at 2.4 mg/kg. Besides, the IC50 at DA-uptake complex came out at 0.018 µM.
For `Fc1ccc(C(OCCN2CCN(CCCc3ccccc3)CC2)c2ccc(F)cc2)cc1` [GBR 12909, 1-(2-(bis(4-fluorophenyl)-methoxy)-ethyl)-4-(3-phenyl-propyl) piperazine, reference compound], the “Test 2” value in the assay with Male NMRI mice is given as 2.3 mg/kg.

The values are drawn from patent publication EP0541617B1, “1,4-DISUBSTITUTED PIPERAZINES” (NOVO NORDISK A/S, priority 1990, dated 1992).
